# Laboratory results as given in patent US20230293407A1, “Compositions Comprising (Bio)-Alkanediols with Antimicrobials for Product Protection” (Symrise AG, priority 2020, published 2023).
# Experiments:
# Assay in all cases: preservation efficacy test (PET), European Pharmacopoeia 5.1.3
# Type in all cases: cell-based
# [1] = tested on: Aspergillus brasiliensis; details: for number of microorganisms, 2 days / number of microorganisms, 7 days / number of microorganisms, 14 days / number of microorganisms, 28 days: PET, Aspergillus brasiliensis (AB)
# [2] = tested on: Escherichia coli; details: for number of microorganisms, 2 days / number of microorganisms, 7 days / number of microorganisms, 14 days / number of microorganisms, 28 days: PET, Escherichia coli (EC)
# [3] = tested on: Candida albicans; details: for number of microorganisms, 2 days / number of microorganisms, 7 days / number of microorganisms, 14 days / number of microorganisms, 28 days: PET, Candida albicans (CA)
# [4] = tested on: Pseudomonas aeruginosa
# [5] = tested on: Staphylococcus aureus; details: for number of microorganisms, 2 days / number of microorganisms, 7 days / number of microorganisms, 14 days / number of microorganisms, 28 days: PET, Staphylococcus aureus (SA)
# [6] = 14 days after inoculation, substance at given % in test formulation
# [7] = 28 days after inoculation, substance at given % in test formulation
# [8] = 2 days after inoculation, substance at given % in test formulation
# [9] = 7 days after inoculation, substance at given % in test formulation
Structure (SMILES),"number of microorganisms, 2 days ([1]; 2 days after inoculation)","number of microorganisms, 7 days ([1]; 7 days after inoculation)","number of microorganisms, 14 days ([1]; 14 days after inoculation)","number of microorganisms, 28 days ([1]; 28 days after inoculation)","number of microorganisms, 2 days ([2]; 2 days after inoculation)","number of microorganisms, 7 days ([2]; 7 days after inoculation)","number of microorganisms, 14 days ([2]; 14 days after inoculation)","number of microorganisms, 28 days ([2]; 28 days after inoculation)","number of microorganisms, 2 days ([3]; 2 days after inoculation)","number of microorganisms, 7 days ([3]; 7 days after inoculation)","number of microorganisms, 14 days ([3]; 14 days after inoculation)","number of microorganisms, 28 days ([3]; 28 days after inoculation)","number of microorganisms, 2 days ([5]; 2 days after inoculation)","number of microorganisms, 7 days ([5]; 7 days after inoculation)","number of microorganisms, 14 days ([5]; 14 days after inoculation)","number of microorganisms, 28 days ([5]; 28 days after inoculation)",further results
"COc1ccc(C(=O)O)cc1 [anisic acid, reference compound]",650.000,360.000,1,1,1,1,1,1,7.000,9.000,1,1,1,1,1,1,"number of microorganisms, 2 days ([4]; PET, Pseudomonas aeruginosa (PA), 2 days after inoculation): 1; number of microorganisms, 7 days ([4]; PET, Pseudomonas aeruginosa (PA), 7 days after inoculation): 1; number of microorganisms, 14 days ([4]; PET, Pseudomonas aeruginosa (PA), 14 days after inoculation): 1; number of microorganisms, 28 days ([4]; PET, Pseudomonas aeruginosa (PA), 28 days after inoculation): 1"
"O=c1cccccc1O [Tropolone, reference compound]",690.000,26.000,1.400,1,190.000,1.100,1.100,1,1,1,1,1,110.000,3.100,3.100,1,
O=C(OCc1ccccc1)c1ccccc1O [0.2% Benzyl Salicylate],,,,,,,,,,,,,,,,,"AB germ count, 14 days [1, 6]: 750.000; AB germ count, 28 days [1, 7]: 630.000; EC germ count, 2 days [2, 8]: 250.000; EC germ count, 7 days [2, 9]: 13.000; EC germ count, 14 days [2, 6]: 640; EC germ count, 28 days [2, 7]: 430; CA germ count, 7 days [3, 9]: 600.000; CA germ count, 14 days [3, 6]: 370.000; CA germ count, 28 days [3, 7]: 390.000; PA germ count, 2 days [4, 8]: 1.200; PA germ count, 7 days [4, 9]: 790; PA germ count, 14 days [4, 6]: 160.000; PA germ count, 28 days [4, 7]: 44.000; SA germ count, 2 days [5, 8]: 670.000; SA germ count, 7 days [5, 9]: 9.200; SA germ count, 14 days [5, 6]: 1; SA germ count, 28 days [5, 7]: 1"
CCCCCCCC(=O)NO [0.4% caprylhydroxamic acid],,,,,,,,,,,,,,,,,"count at 2 days ([1]; AB, 2 days after inoculation, use concentration in label): 810.000; count at 7 days ([1]; AB, 7 days after inoculation, use concentration in label): 68.000; count at 14 days ([1]; AB, 14 days after inoculation, use concentration in label): 180; count at 28 days ([1]; AB, 28 days after inoculation, use concentration in label): 1; count at 2 days ([2]; EC, 2 days after inoculation, use concentration in label): 6.900; count at 7 days ([2]; EC, 7 days after inoculation, use concentration in label): 1; count at 14 days ([2]; EC, 14 days after inoculation, use concentration in label): 1; count at 28 days ([2]; EC, 28 days after inoculation, use concentration in label): 1; count at 2 days ([3]; CA, 2 days after inoculation, use concentration in label): 210.000; count at 7 days ([3]; CA, 7 days after inoculation, use concentration in label): 1; count at 14 days ([3]; CA, 14 days after inoculation, use concentration in label): 1; count at 28 days ([3]; CA, 28 days after inoculation, use concentration in label): 1; count at 2 days ([4]; PA, 2 days after inoculation, use concentration in label): 1; count at 7 days ([4]; PA, 7 days after inoculation, use concentration in label): 1; count at 14 days ([4]; PA, 14 days after inoculation, use concentration in label): 1; count at 28 days ([4]; PA, 28 days after inoculation, use concentration in label): 1; count at 2 days ([5]; SA, 2 days after inoculation, use concentration in label): 1; count at 7 days ([5]; SA, 7 days after inoculation, use concentration in label): 1; count at 14 days ([5]; SA, 14 days after inoculation, use concentration in label): 1; count at 28 days ([5]; SA, 28 days after inoculation, use concentration in label): 1"
"CCCCCCC(O)CO (stereo not drawn) [1,2-octanediol]",650.000,360.000,250.000,67.000,1,1,1,1,70.000,9.000,1,1,1,1,1,1,
"CCCCCCCC(=O)NO [caprylhydroxamic acid, reference compound]",810.000,68.000,180,1,6.900,1,1,1,210.000,1,1,1,1,1,1,1,
